The nature of series [1]: Sedimentation velocity analysis (SVA), oligomerization state. Type of series: physicochemical. Particulars: 150 μM in PBS (pH 7.4), 60,000 rpm, 20 °C, 280 nm; for Sedimentation coefficient: SEDFIT; for Observed molecular mass (kDa) by sedimentation analysis: SEDFIT c(M). As for the experimental part:
All measurements were performed on a ProteomelabTMXL-A/XL-I analytical ultracentrifuge (Beckman Coulter, Fullerton, CA, USA) at 20 °C, as described previously. In brief, three-channel cells were used with an An-60 Tirotor. Lyophilized peptides were resuspended in ddH2O (pH 7.0) at approximately 1 mg mL^–1. The individual proteins were prepared in PBS and incubated at 37 °C for 30 min. All samples were prepared at a final concentration of 150 μM and were initially scanned at 3000 rpm for 10 min to identify the appropriate wavelength for data collection. Data were collected at 60 000 rpm at a wavelength of 280 nm. Sedimentation coefficient distribution, c(s), and molecular mass distribution, c(M), were calculated using the SEDFIT program.
Table S1. […]
Sedimentation equilibrium studies were performed at a concentration of 150 μM in PBS (pH 7.4) and a rotor speed of
60,000 rpm at 20 °C. b The theoretical molecular mass for the HR peptides in the monomeric conformation.
(§1) Table S2. Sequences of designed peptides a
(§2) a The Glu residues with a thioester side chain are underlined. Isopeptide bonds are formed between Lys-9 and Glu-14 (in […]

The nature of series [2]: Chemical denaturation by Gdn·HCl followed by CD at 222 nm. Type of series: physicochemical. To be noted: 7 M Gdn·HCl in PBS pH 7.4, 3 h at room temperature, CD 222 nm (Fig. 3C). As for the experimental part:
For thermal denaturation studies, the stock peptide solutions were diluted with appropriate volumes of buffer and guanidine hydrochloride.

The nature of series [3]: CD spectroscopy, α-helicity. In kind it is physicochemical. Particulars: CD in PBS, pH 7.4, final peptide concentration 10 μM, pre-incubated 37 °C 0.5 h. The method, then:
(§3) Lyophilized peptides were resuspended in ddH2O (pH 7.0) at a concentration of approximately 1 mg mL^–1. […] The peptides were incubated in a water bath set at 37 °C for 0.5 h before testing. CD spectra were acquired on an MOS-450 system (BioLogic, Claix, France) using the following parameters: band width, 4.0 nm; resolution, 0.1 nm; path length, 0.1 cm; response time, 4.0 s; and scanning speed, 50 nm min^–1. For CD thermal denaturation analysis, the temperature was controlled by a BioLogic TCU250 system, and CD spectra were monitored at 222 nm from 10 °C to 90 °C at a scan speed of 2 °C min^–1.
(§4) Table S1. Biophysical properties of the designed peptides a
(§5) a CD spectra of each designed peptide were monitored in PBS, pH 7.4. The final peptide concentration was 10 μM. […]

The nature of series [4]: CD thermal denaturation (Tm). Type of series: physicochemical. To be noted: CD at 222 nm, 10 °C to 90 °C at 2 °C min–1, PBS pH 7.4, 10 μM peptide. The method, then:
as §3
The samples were incubated at room temperature for 3 h before their full-range CD spectra or the ellipticities at 222 nm were recorded. For thermal denaturation studies, the stock peptide solutions were diluted with appropriate volumes of buffer and guanidine hydrochloride. Thermal denaturation was performed by monitoring the ellipticity change at 222 nm from 10 °C to 90 °C at a rate of 2 °C min^–1.
as §4, §5, §1, §2

The subject of a further series is HIV-1BaL. Nature of the series: HIV-1BaL infection assay (TZM-b1 cells, p24 ELISA). Type of series: cell-based. Particulars: 100 TCID50, p24 ELISA on fourth day post-infection, triplicate, mean ± standard deviation, read-out: EC50 (nM) for inhibiting HIV-1BaL infection. The text has this: (§6) To measure the inhibitory activity of the peptides on infection of HIV-1IIIB and HIV-1BaL, 1 × 10^4 MT-2 cells and TZM-b1 cells, respectively, were infected with 100 times the median tissue culture infective dose of a virus in the presence or absence of the peptides at graded concentrations. On the fourth day post-infection, the culture supernatants were collected for detection of p24 antigen using an enzyme-linked immunosorbent assay (ELISA). The percent inhibition by the peptides and EC50 values was calculated using Calcusyn software.[27]

Series [5] concerns HIV-1 Env-mediated cell–cell fusion. Particulars: read-out: EC50 (nM) for inhibiting cell–cell fusion; HL2/3 and TZM-bl cells coincubated 6–8 h at 37 °C, luciferase read-out; triplicate, mean ± standard deviation. As for the experimental part: Cell–cell fusion assays were performed as described previously.[26] HL2/3 cells, which stably express HIV Gag, Env, Tat, Rev, and Nef proteins, as well as TZM-bl cells, which stably express large amounts of CD4 and CCR5, were obtained from the NIH AIDS Reference and Reagent Program (contributed by Drs Barbara Felber and George Pavlakis and Drs John C. Kappes and Xiaoyun Wu, respectively). TZM-bl cells (2.5 × 10^4 per well) and HL2/3 cells (7.5 × 10^4 per well) were coincubated in 96-well plates (Corning Costar) at 37 °C in 5% CO2 in the presence of different concentrations of inhibitors. After incubation for 6–8 h, the medium was aspirated, the cells were washed and lysed, and luciferase activity was measured using the Luciferase Assay System (Promega, Madison, WI) on a SpectraMax M5 plate reader (Molecular Devices, Sunnyvale, CA).

Another series relates to HIV-1IIIB. Nature of the series: HIV-1IIIB infection assay (MT-2 cells, p24 ELISA). Type of series: cell-based. To be noted: 100 TCID50, p24 ELISA on fourth day post-infection, triplicate, mean ± standard deviation, read-out: EC50 (nM) for inhibiting HIV–1IIIB infection.
Text: as §6

For series [6] the following is noted: rat (Sprague-Dawley, three pooled) liver homogenate, 4 mL Tris–HCl 50 mM pH 7.4 per g, 9,000g supernatant, peptide 10 μg/mL, LC-MS/MS (SIM) (Fig. 4B).
Description: (§7) Qualification assay. Chromatographic analyses were performed using an ODS-C8 column (5 μm, 100 mm × 2.0mm ID) kept at ambient temperature. The mobile phase was composed of acetonitrile-water-formic acid in the ratio of 60:40:0.1 (v/v/v) at a flow rate of 0.3 mL/min. The sample injection volume was 10 μL. Acetonitrile was HPLC grade, and other chemical reagents and solvents were analytical grade. A Thermo TSQ Quantum Discovery MAX triple–quadruple tandem mass spectrometer equipped with ESI source (San Jose, CA) and Surveyor LC pump were used for LC-MS/MS analysis. Data acquisition and data processing were performed by using Xcalibur software and LCQuan 2.0 data analysis program (Thermo Finnigan), respectively. Optimized MS parameters were as below: 4800 V spray voltage, 10.0 psi sheath gas pressure, 1.0 psi auxiliary valve flow, and 300 °C of capillary temperature. When running collision-induced dissociation (CID), the pressure was set to 1.5 mTorr. The selected ion monitoring (SIM) mode was preformed for T20
(§8) Preparation of Samples. By use of a simple protein precipitation method, a test compound was extracted from liver
(§9) homogenate and 20 ng/mL proteinase K in PBS, respectively. Samples for standard curves were prepared by spiking 50
(§10) μL of rat liver homogenate or 20 ng/mL proteinase K with 100 μL of various concentrations of each test compound
(§11) ranging from 0.1－5 μg/mL in ethanol. […]
In a further series the target is proteinase K (Parengyodontium album, UniProt P06873). To be noted: 20 ng/mL proteinase K in PBS, peptide 10 μg/mL, LC-MS/MS (SIM) (Fig. 4A).

Bridge positions count the residues as written; N and C are the ends. Peptide text beside a SMILES is read from it. I, II: the chains in the order shown.

Experimental findings from article PMC6054081, “De novo design of isopeptide bond-tethered triple-stranded coiled coils with exceptional resistance to unfolding and proteolysis: implication for developing antiviral therapeutics” (Chemical Science, 2015) are described below.

Sequence of proteinase K (P06873 106-384): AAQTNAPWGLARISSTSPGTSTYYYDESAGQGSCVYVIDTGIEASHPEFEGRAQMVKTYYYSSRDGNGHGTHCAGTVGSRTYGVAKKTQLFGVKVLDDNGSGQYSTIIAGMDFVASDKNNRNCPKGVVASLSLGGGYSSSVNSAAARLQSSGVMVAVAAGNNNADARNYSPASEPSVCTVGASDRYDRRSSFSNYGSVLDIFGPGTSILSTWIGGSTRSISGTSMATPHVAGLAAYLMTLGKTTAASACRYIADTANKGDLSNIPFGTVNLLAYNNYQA
Description for proteinase K: as §7, §8, §9, §10, §11

Consider `CC[C@H](C)[C@H](NC(=O)[C@H](CCC(N)=O)NC(=O)[C@H](CCC(N)=O)NC(=O)[C@@H](NC(=O)[C@H](CCCNC(=N)N)NC(=O)[C@H](CCC(N)=O)NC(=O)[C@H](CCC(=O)O)NC(=O)[C@@H](NC(=O)[C@H](Cc1c[nH]cn1)NC(=O)[C@H](Cc1c[nH]cn1)NC(=O)[C@@H](NC(=O)[C@H](CCCCN)NC(=O)[C@H](CCC(N)=O)NC(=O)[C@H](CCC(=O)O)NC(=O)[C@@H](NC(=O)[C@H](CCC(N)=O)NC(=O)[C@H](CCC(N)=O)NC(=O)[C@@H](NC(=O)[C@H](CCCNC(=N)N)NC(=O)[C@H](Cc1c[nH]c2ccccc12)NC(C)=O)[C@@H](C)CC)[C@@H](C)CC)[C@@H](C)CC)[C@@H](C)CC)[C@@H](C)CC)C(=O)N[C@@H](CCC(=O)O)C(=O)N[C@@H](CCC(N)=O)C(N)=O` [Compound 3HR] (Ac-WRIQQIEQKIHHIEQRIQQIEQ-NH2), for which, in series [1], the “Sedimentation coefficient” value is 1.2 s and the “Observed molecular mass (kDa) by sedimentation analysis” value (“Observed molecular mass (kDa)” for short) turned out to be 9.9 kDa. For the same compound, in series [2], the “[θ]G/[θ]0 ([θ]222 with Gdn·HCl vs. without) / resistance to Gdn·HCl unfolding” value is “completely lost its tertiary structure”. Moreover, the “Helicity (%)” value in series [3] was 46.4%. In addition, in series [4], the “Tm (°C)” value turned out to be 44 °C.

For `CC[C@H](C)[C@H](NC(C)=O)C(=O)N[C@@H](CCC(=O)O)C(=O)N[C@@H](C)C(=O)N[C@@H](CCC(N)=O)C(=O)N[C@@H](CCC(N)=O)C(=O)N[C@@H](Cc1c[nH]cn1)C(=O)N[C@@H](CC(C)C)C(=O)N[C@@H](CC(C)C)C(=O)N[C@@H](CCC(N)=O)C(=O)N[C@@H](CC(C)C)C(=O)N[C@H](C(=O)N[C@H](C(=O)N[C@@H](Cc1c[nH]c2ccccc12)C(=O)NCC(=O)N[C@H](C(=O)N[C@@H](CCCCN)C(=O)N[C@@H](CCC(N)=O)C(=O)N[C@@H](CC(C)C)C(=O)N[C@@H](CCC(N)=O)C(=O)N[C@@H](C)C(=O)N[C@@H](CCCNC(=N)N)C(=O)N[C@H](C(=O)N[C@@H](CC(C)C)C(N)=O)[C@@H](C)CC)[C@@H](C)CC)C(C)C)[C@@H](C)O` [Compound N23, reference compound] (Ac-IEAQQHLLQLTVWGIKQLQARIL-NH2), the 50% effective concentration (EC50) in the series with HIV-1BaL is over 10000 nM; in series [5] it was over 5000 nM; in the series with HIV-1IIIB it was over 10000 nM. Also, the “Helicity (%)” value in [3] was 16.8%. Further, the “Tm (°C)” value in series [4] is listed as “not detected”.

In the case of “I: Ac-WRIQQIEQKIHHIEQRIQQIEQ-NH2 / II: Ac-WRIQQIEQKIHHIEQRIQQIEQ-NH2 / III: Ac-WRIQQIEQKIHHIEQRIQQIEQ-NH2 (amide I:9-III:14, I:14-II:9, II:14-III:9) [(3HR)3]”, the “Sedimentation coefficient” value in series [1] came out at 1.2 s. In addition, in [1], the “Observed molecular mass (kDa)” value was found to be 9.2 kDa. Besides, the EC50 in the series on HIV-1BaL is over 10000 nM; in series [5], over 5000 nM; with HIV-1IIIB, over 10000 nM. Further, in [2], the “[θ]G/[θ]0 ([θ]222 with Gdn·HCl vs. without) / resistance to Gdn·HCl unfolding” value is given as “almost unbreakable”. For the same compound, the “Helicity (%)” value in [3] was 83.4%. For the same compound, in series [4], the “Tm (°C)” value was “higher than 90 °C”.

Turning to “W RIQQIEQ KI HHIE Q RIQQIEQ RIEAQQH LLQLTVW GIKQLQA RIL (sidechain bridge or staple) [(3HRN23)3]”, the “Sedimentation coefficient” value in series [1] is listed as 1.6 s. Further, the “Observed molecular mass (kDa)” value in series [1] came to 17.3 kDa. Also, the EC50 in the series with HIV-1BaL is 58.2 ± 1.5 nM; in series [5], 10.2 ± 0.9 nM; in the series with HIV-1IIIB, 21.3 ± 1.8 nM. In addition, in series [6], the “proteolytic stability in liver homogenate, compared with T20” value is “much more resistant than T20”. Besides, the “Helicity (%)” value in series [3] is reported as 89.6%. In series [4], the “Tm (°C)” value was over 90 °C. Also, the “proteolytic stability in proteinase K, compared with T20” value at proteinase K is reported as “much more resistant than T20”.

On to `CC[C@H](C)[C@H](NC(=O)[C@H](CCC(N)=O)NC(=O)[C@H](CCC(N)=O)NC(=O)[C@@H](NC(=O)[C@H](CCCNC(=N)N)NC(=O)[C@H](CCC(N)=O)NC(=O)[C@H](CCC(=O)O)NC(=O)[C@@H](NC(=O)[C@H](CCC(N)=O)NC(=O)[C@H](CCC(N)=O)NC(=O)[C@@H](NC(=O)[C@H](CCCNC(=N)N)NC(=O)[C@H](CCC(N)=O)NC(=O)[C@H](CCC(=O)O)NC(=O)[C@@H](NC(=O)[C@H](Cc1c[nH]cn1)NC(=O)[C@H](Cc1c[nH]cn1)NC(=O)[C@@H](NC(=O)[C@H](CCCCN)NC(=O)[C@H](CCC(N)=O)NC(=O)[C@H](CCC(=O)O)NC(=O)[C@@H](NC(=O)[C@H](CCC(N)=O)NC(=O)[C@H](CCC(N)=O)NC(=O)[C@@H](NC(=O)[C@H](CCCNC(=N)N)NC(=O)[C@H](Cc1c[nH]c2ccccc12)NC(C)=O)[C@@H](C)CC)[C@@H](C)CC)[C@@H](C)CC)[C@@H](C)CC)[C@@H](C)CC)[C@@H](C)CC)[C@@H](C)CC)C(=O)N[C@@H](CCC(=O)O)C(=O)N[C@@H](CCC(N)=O)C(N)=O` [Compound 4HR] (Ac-WRIQQIEQKIHHIEQRIQQIEQRIQQIEQ-NH2), for which, in [1], the “Sedimentation coefficient” value is 1.3 s and the “Observed molecular mass (kDa)” value was determined as 10.5 kDa. The “[θ]G/[θ]0 ([θ]222 with Gdn·HCl vs. without) / resistance to Gdn·HCl unfolding” value in series [2] is given as about 0.2. Besides, the “Helicity (%)” value in [3] was determined as 99.5%. In addition, the “Tm (°C)” value in series [4] is “higher than 90 °C”.

For the compound “I: Ac-WRIQQIEQKIHHIEQRIQQIEQRIQQIEQ-NH2 / II: Ac-WRIQQIEQKIHHIEQRIQQIEQRIQQIEQ-NH2 / III: Ac-WRIQQIEQKIHHIEQRIQQIEQRIQQIEQ-NH2 (amide I:9-III:14, I:14-II:9, II:14-III:9) [(4HR)3]”, in [1], the “Sedimentation coefficient” value is 1.5 s. For the same compound, the “Observed molecular mass (kDa)” value in [1] is recorded as 13.3 kDa. Moreover, the EC50 with HIV-1BaL is over 10000 nM; in [5], over 5000 nM; in the series with HIV-1IIIB it was over 10000 nM. Further, the “[θ]G/[θ]0 ([θ]222 with Gdn·HCl vs. without) / resistance to Gdn·HCl unfolding” value in [2] is “almost unbreakable”. Also, the “Tm (°C)” value in [4] was “higher than 90 °C”.
